Patent US9693556B2, “Herbicidal pyridazinone derivatives” (SYNGENTA LIMITED, priority 2011, dated 2017)

Experiments:
Type in all cases: in vivo
[1] = tested on: Amaranthus retoflexus (AMARE); assay: Pre-emergence herbicidal glasshouse test on Amaranthus retoflexus; conditions: pre-emergence, 1000 g/h, evaluated after 13 days; for herbicidal damage, PRE Application AMARE: five point scale
Procedure, shortened: (§1)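 Application rate 1000 g/h, formulated in acetone/water (50:50) with 0.5% Tween 20 and sprayed onto pots sown 1 day (pre-emergence) or 8 days (post-emergence) earlier. Evaluation at 13 days rated damage from 1 (0-19%) to 5 (80-100%).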

[2] = tested on: Amaranthus retoflexus (AMARE); assay: Post-emergence herbicidal glasshouse test on Amaranthus retoflexus; conditions: post-emergence, 1000 g/h, evaluated after 13 days; for herbicidal damage, POST Application AMARE: five point scale
Procedure, shortened: as §1

[3] = tested on: Ipomoea hederacea (IPOHE); assay: Post-emergence herbicidal glasshouse test on Ipomoea hederacea; conditions: post-emergence, 1000 g/h, evaluated after 13 days; for herbicidal damage, POST Application IPOHE: five point scale
Procedure, shortened: as §1

[4] = tested on: Echinochloa crus-galli (ECHCG); assay: Post-emergence herbicidal glasshouse test on Echinochloa crus-galli; conditions: post-emergence, 1000 g/h, evaluated after 13 days; for herbicidal damage, POST Application ECHCG: five point scale
Procedure, shortened: as §1

Setaria faberi (SETFA) [5] = assay: Post-emergence herbicidal glasshouse test on Setaria faberi; conditions: post-emergence, 1000 g/h, evaluated after 13 days; for herbicidal damage, POST Application SETFA: five point scale
Procedure, shortened: as §1

[6] = tested on: Alopecurus myosuroides (ALOMY); assay: Post-emergence herbicidal glasshouse test on Alopecurus myosuroides; conditions: post-emergence, 1000 g/h, evaluated after 13 days; for herbicidal damage, POST Application ALOMY: five point scale
Procedure, shortened: as §1

[7] = tested on: Ipomoea hederacea (IPOHE); assay: Pre-emergence herbicidal glasshouse test on Ipomoea hederacea; conditions: pre-emergence, 1000 g/h, evaluated after 13 days; for herbicidal damage, PRE Application IPOHE: five point scale
Procedure, shortened: as §1

Setaria faberi (SETFA) [8] = assay: Pre-emergence herbicidal glasshouse test on Setaria faberi; conditions: pre-emergence, 1000 g/h, evaluated after 13 days; for herbicidal damage, PRE Application SETFA: five point scale
Procedure, shortened: as §1

[9] = tested on: Alopecurus myosuroides (ALOMY); assay: Pre-emergence herbicidal glasshouse test on Alopecurus myosuroides; conditions: pre-emergence, 1000 g/h, evaluated after 13 days; for herbicidal damage, PRE Application ALOMY: five point scale
Procedure, shortened: as §1

Solanum nigrum (SOLNI) [10] = assay: Pre-emergence herbicidal glasshouse test on Solanum nigrum; conditions: pre-emergence, 1000 g/h, evaluated after 13 days; for herbicidal damage, PRE Application SOLNI: five point scale
Procedure, shortened: as §1

Solanum nigrum (SOLNI) [11] = assay: Post-emergence herbicidal glasshouse test on Solanum nigrum; conditions: post-emergence, 1000 g/h, evaluated after 13 days; for herbicidal damage, POST Application SOLNI: five point scale
Procedure, shortened: as §1

[12] = tested on: Echinochloa crus-galli (ECHCG); assay: Pre-emergence herbicidal glasshouse test on Echinochloa crus-galli; conditions: pre-emergence, 1000 g/h, evaluated after 13 days; for herbicidal damage, PRE Application ECHCG: five point scale
Procedure, shortened: as §1

Cc1ccc2cc(-c3cnn(C)c(=O)c3O)c(C(F)(F)F)nc2n1 [Compound 1.154]
2 (2=20-39% damage): herbicidal damage, PRE Application SETFA (Setaria faberi (SETFA) [8]) | herbicidal damage, PRE Application ALOMY [9] | herbicidal damage, PRE Application SOLNI (Solanum nigrum (SOLNI) [10])
4 (4=60-79% damage): herbicidal damage, POST Application ALOMY [6]
5 (5=80-100% damage): herbicidal damage, PRE Application AMARE [1] | herbicidal damage, POST Application AMARE [2] | herbicidal damage, POST Application IPOHE [3] | herbicidal damage, POST Application ECHCG [4] | herbicidal damage, POST Application SETFA (Setaria faberi (SETFA) [5]) | herbicidal damage, PRE Application IPOHE [7] | herbicidal damage, POST Application SOLNI (Solanum nigrum (SOLNI) [11]) | herbicidal damage, PRE Application ECHCG [12]

CC(C)OCc1ccc(-c2cnn(C)c(=O)c2O)c(S(C)(=O)=O)c1 [Compound 2.043]
4 (4=60-79% damage): POST Application SETFA herbicidal damage (five point scale) (Setaria faberi (SETFA) [5])
5 (5=80-100% damage): PRE Application AMARE herbicidal damage (five point scale) [1] | POST Application AMARE herbicidal damage (five point scale) [2] | POST Application IPOHE herbicidal damage (five point scale) [3] | POST Application ECHCG herbicidal damage (five point scale) [4] | PRE Application SOLNI herbicidal damage (five point scale) (Solanum nigrum (SOLNI) [10]) | POST Application SOLNI herbicidal damage (five point scale) (Solanum nigrum (SOLNI) [11]) | PRE Application ECHCG herbicidal damage (five point scale) [12]
1 (1=0-19% damage): PRE Application SETFA herbicidal damage (five point scale) (Setaria faberi (SETFA) [8])
2 (2=20-39% damage): PRE Application IPOHE herbicidal damage (five point scale) [7]
3 (3=40-59% damage): POST Application ALOMY herbicidal damage (five point scale) [6] | PRE Application ALOMY herbicidal damage (five point scale) [9]

CCCCS(=O)(=O)c1ccccc1-c1cnn(C)c(=O)c1O [Compound 1.051]
4 (4=60-79% damage): POST Application IPOHE herbicidal damage (five point scale) [3] | PRE Application ECHCG herbicidal damage (five point scale) [12]
1 (1=0-19% damage): POST Application ALOMY herbicidal damage (five point scale) [6] | PRE Application IPOHE herbicidal damage (five point scale) [7] | PRE Application SETFA herbicidal damage (five point scale) (Setaria faberi (SETFA) [8]) | PRE Application SOLNI herbicidal damage (five point scale) (Solanum nigrum (SOLNI) [10])
2 (2=20-39% damage): POST Application ECHCG herbicidal damage (five point scale) [4] | POST Application SETFA herbicidal damage (five point scale) (Setaria faberi (SETFA) [5]) | PRE Application ALOMY herbicidal damage (five point scale) [9]
5 (5=80-100% damage): PRE Application AMARE herbicidal damage (five point scale) [1] | POST Application AMARE herbicidal damage (five point scale) [2] | POST Application SOLNI herbicidal damage (five point scale) (Solanum nigrum (SOLNI) [11])

Cn1ncc(-n2ccc(C(F)(F)F)c(-c3cccc(OC(F)(F)F)c3)c2=O)c(O)c1=O [Compound 7.005]
5 (5=80-100% damage): PRE Application AMARE herbicidal damage (five point scale) [1] | POST Application AMARE herbicidal damage (five point scale) [2] | POST Application ECHCG herbicidal damage (five point scale) [4] | PRE Application SOLNI herbicidal damage (five point scale) (Solanum nigrum (SOLNI) [10]) | POST Application SOLNI herbicidal damage (five point scale) (Solanum nigrum (SOLNI) [11]) | PRE Application ECHCG herbicidal damage (five point scale) [12]
4 (4=60-79% damage): POST Application IPOHE herbicidal damage (five point scale) [3] | POST Application SETFA herbicidal damage (five point scale) (Setaria faberi (SETFA) [5]) | POST Application ALOMY herbicidal damage (five point scale) [6] | PRE Application SETFA herbicidal damage (five point scale) (Setaria faberi (SETFA) [8]) | PRE Application ALOMY herbicidal damage (five point scale) [9]
1 (1=0-19% damage): PRE Application IPOHE herbicidal damage (five point scale) [7]

COc1nccc(-c2cnn(C)c(=O)c2O)c1Cl [Compound 1.150]
1 (1=0-19% damage): herbicidal damage, POST Application AMARE [2] | herbicidal damage, POST Application IPOHE [3] | herbicidal damage, POST Application ECHCG [4] | herbicidal damage, POST Application SETFA (Setaria faberi (SETFA) [5]) | herbicidal damage, POST Application ALOMY [6] | herbicidal damage, PRE Application SETFA (Setaria faberi (SETFA) [8]) | herbicidal damage, PRE Application ALOMY [9] | herbicidal damage, PRE Application SOLNI (Solanum nigrum (SOLNI) [10]) | herbicidal damage, PRE Application ECHCG [12]
4 (4=60-79% damage): herbicidal damage, POST Application SOLNI (Solanum nigrum (SOLNI) [11])
2 (2=20-39% damage): herbicidal damage, PRE Application AMARE [1] | herbicidal damage, PRE Application IPOHE [7]

CCCOc1nn(C)c(=O)c(O)c1-c1ccc(C(F)(F)F)cc1S(C)(=O)=O [Compound 2.051, 4-hydroxy-2-methyl-5-[2-methylsulfonyl-4-(trifluoromethyl)phenyl]-6-propoxy-pyridazin-3-one]
3 (3=40-59% damage): PRE Application SETFA herbicidal damage (five point scale) (Setaria faberi (SETFA) [8])
4 (4=60-79% damage): PRE Application IPOHE herbicidal damage (five point scale) [7]
5 (5=80-100% damage): PRE Application AMARE herbicidal damage (five point scale) [1] | POST Application AMARE herbicidal damage (five point scale) [2] | POST Application IPOHE herbicidal damage (five point scale) [3] | POST Application ECHCG herbicidal damage (five point scale) [4] | POST Application SETFA herbicidal damage (five point scale) (Setaria faberi (SETFA) [5]) | POST Application ALOMY herbicidal damage (five point scale) [6] | PRE Application ALOMY herbicidal damage (five point scale) [9] | PRE Application SOLNI herbicidal damage (five point scale) (Solanum nigrum (SOLNI) [10]) | POST Application SOLNI herbicidal damage (five point scale) (Solanum nigrum (SOLNI) [11]) | PRE Application ECHCG herbicidal damage (five point scale) [12]

Cn1ncc(-c2cc(OC(F)(F)F)ccc2Cl)c(O)c1=O [Compound 1.100]
1 (1=0-19% damage): PRE Application AMARE herbicidal damage (five point scale) [1] | POST Application ECHCG herbicidal damage (five point scale) [4] | POST Application SETFA herbicidal damage (five point scale) (Setaria faberi (SETFA) [5]) | POST Application ALOMY herbicidal damage (five point scale) [6] | PRE Application IPOHE herbicidal damage (five point scale) [7] | PRE Application SETFA herbicidal damage (five point scale) (Setaria faberi (SETFA) [8]) | PRE Application ALOMY herbicidal damage (five point scale) [9] | PRE Application SOLNI herbicidal damage (five point scale) (Solanum nigrum (SOLNI) [10]) | PRE Application ECHCG herbicidal damage (five point scale) [12]
2 (2=20-39% damage): POST Application AMARE herbicidal damage (five point scale) [2] | POST Application IPOHE herbicidal damage (five point scale) [3] | POST Application SOLNI herbicidal damage (five point scale) (Solanum nigrum (SOLNI) [11])

COC(=O)Oc1c(-c2ccc(C(F)(F)F)cc2S(C)(=O)=O)cnn(C)c1=O [Compound 3.003, Methyl [2-methyl-5-[2-methylsulfonyl-4-(trifluoromethyl)phenyl]-3-oxo-pyridazin-4-yl]carbonate]
5 (5=80-100% damage): PRE Application AMARE herbicidal damage (five point scale) [1] | POST Application AMARE herbicidal damage (five point scale) [2] | POST Application IPOHE herbicidal damage (five point scale) [3] | POST Application ECHCG herbicidal damage (five point scale) [4] | POST Application SETFA herbicidal damage (five point scale) (Setaria faberi (SETFA) [5]) | POST Application ALOMY herbicidal damage (five point scale) [6] | PRE Application IPOHE herbicidal damage (five point scale) [7] | PRE Application SETFA herbicidal damage (five point scale) (Setaria faberi (SETFA) [8]) | PRE Application ALOMY herbicidal damage (five point scale) [9] | PRE Application SOLNI herbicidal damage (five point scale) (Solanum nigrum (SOLNI) [10]) | POST Application SOLNI herbicidal damage (five point scale) (Solanum nigrum (SOLNI) [11]) | PRE Application ECHCG herbicidal damage (five point scale) [12]

CCn1ncc(-c2cc3cccnc3nc2C(F)(F)F)c(O)c1=O [Compound 5.001]
5 (5=80-100% damage): PRE Application AMARE herbicidal damage (five point scale) [1] | POST Application AMARE herbicidal damage (five point scale) [2] | POST Application IPOHE herbicidal damage (five point scale) [3] | POST Application ECHCG herbicidal damage (five point scale) [4] | POST Application SETFA herbicidal damage (five point scale) (Setaria faberi (SETFA) [5]) | POST Application ALOMY herbicidal damage (five point scale) [6] | PRE Application IPOHE herbicidal damage (five point scale) [7] | PRE Application SETFA herbicidal damage (five point scale) (Setaria faberi (SETFA) [8]) | PRE Application ALOMY herbicidal damage (five point scale) [9] | PRE Application SOLNI herbicidal damage (five point scale) (Solanum nigrum (SOLNI) [10]) | POST Application SOLNI herbicidal damage (five point scale) (Solanum nigrum (SOLNI) [11]) | PRE Application ECHCG herbicidal damage (five point scale) [12]

COc1ccc(Cl)c(-c2cnn(C)c(=O)c2O)c1 [Compound 1.090]
2 (2=20-39% damage): POST Application SOLNI herbicidal damage (five point scale) (Solanum nigrum (SOLNI) [11])
1 (1=0-19% damage): PRE Application AMARE herbicidal damage (five point scale) [1] | POST Application AMARE herbicidal damage (five point scale) [2] | POST Application IPOHE herbicidal damage (five point scale) [3] | POST Application ECHCG herbicidal damage (five point scale) [4] | POST Application SETFA herbicidal damage (five point scale) (Setaria faberi (SETFA) [5]) | POST Application ALOMY herbicidal damage (five point scale) [6] | PRE Application IPOHE herbicidal damage (five point scale) [7] | PRE Application SETFA herbicidal damage (five point scale) (Setaria faberi (SETFA) [8]) | PRE Application ALOMY herbicidal damage (five point scale) [9] | PRE Application SOLNI herbicidal damage (five point scale) (Solanum nigrum (SOLNI) [10]) | PRE Application ECHCG herbicidal damage (five point scale) [12]
